Assay results as given in patent US20210393540A1, “NANOPARTICLE-ENCAPSULATED CANNABINOIDS AND METHODS FOR MAKING AND USING SAME” (NuRevelation, LLC, priority 2020, published 2021).

Test: Stability of CBD after encapsulation into nanoparticles, by NMR spectra
Format: physicochemical
Details: NMR spectrum of CBD after encapsulation into nanoparticles (bottom) relative to non-encapsulated CBD sample (top), FIG. 3
Source text: In some aspects, the cannabinoid in the dispersion can have a purity of at least 90%. In a further aspect, the purity of the cannabinoid in the dispersion ranges from 90-100%. In a still further aspect, the purity of the cannabinoid in the dispersion ranges from 92-97%. In general, the inventors have discovered that the encapsulation process described herein can be improved with the use of a pure cannabinoid starting material (e.g., from 92-97% pure). Similarly, the nanoparticle encapsulated cannabinoid products can advantageously maintain the purity of the cannabinoid over extended periods of time. In some aspects, the purity of the cannabinoid starting material can be maintained once encapsulated for a period of twelve months or longer, e.g., 18 months or longer, or even 24 months or longer. The stable shelf life of the cannabinoid nanoparticles is an advantage over many existing methods for delivering cannabinoid products. In some aspects, the stability of the cannabinoid can be measured using NMR, e.g., by comparing a pre-encapsulated cannabinoid to a cannabinoid extracted from a nanoparticle prepared by a disclosed method.

SMILES: C=C(C)[C@@H]1CCC(C)=C[C@H]1c1c(O)cc(CCCCC)cc1O [CBD, cannabidiol]
- stability of CBD after encapsulation: remains intact
